Values of other authors in patent US20130133101A1, “PLANTS RESISTANT TO PATHOGENS AND METHODS FOR PRODUCTION THEREOF” (GENOPLANTE-VALOR, priority 2010, published 2013).
Non-standard residues stand in square brackets, D forms with d. sY = N[C@@H](Cc1ccc(OS(=O)(=O)O)cc1)C(=O)O

Legend:
Botrytis tulipae = settings: in vitro, dose-dependent manner
Phoma nareissi = settings: in vitro, dose-dependent manner

Substance	mycelium growth inhibition (Botrytis tulipae)	mycelium growth inhibition (Phoma nareissi)
H-[sY]I[sY]T-OH [PSKβ]	inhibit in vitro the mycelium growth	inhibit in vitro the mycelium growth
H-[sY]I[sY]TQ-OH [PSKα]	inhibit in vitro the mycelium growth	inhibit in vitro the mycelium growth
